Bridges are numbered along the chain shown (N, C = ends). Roman numbers before positions name the chains, in order.
Test system: IL-33 signaling (HEK-Blue IL-33 cells)
Assay: SEAP reporter assay in HEK-Blue IL-33 reporter cells
Type: cell-based, human
Description: HEK-Blue® IL-33 (Invivogen, Cat. #hkb-hil33) and IL-1β cells (Invivogen, Cat #hkb-il1bv2) were cultured in T25 and T75 flasks (NUNC, Cat. #156367 and #156499) in DMEM media supplemented with L-glutamine (Gibco, Cat. #11995-065), 10% Fetal Bovine Serum (Gibco, Cat. #10437-028), 1% Penicillin/Streptomycin (Gibco, Cat. #15140-148), and 0.5% Normacin® (Invivogen, Cat. #ant-hr-1). IL-33 cell growth media also included 1 mL of 250× Selectin Cocktail® (Invivogen, Cat. #hb-sel) and IL-1β cell growth media included 100 μg/mL of Zeocin® (Cat #ant-zn-05). Cells were maintained at 37° C. with humidity and 5% CO2 and were passaged upon reaching 80-85% confluency. […]
IL-33 and IL-1β signaling activation was assessed based on the expression of a SEAP reporter gene. […] Pellet was resuspended in 5 mL test medium (DMEM, 10% heat inactivated FBS, and 1% P/S), cells counted, and concentration adjusted to 2.8×10^5 cell/mL. […] After incubation, SEAP reporter gene phosphatase activity was measured by adding 20 μL of supernatant from each well to 180 μL of QuantiBLUE substrate (Invivogen, Cat #rep-qbs) and incubated an additional 30 min at 37° C. Colorimetric absorbance was measured at 620 nm. […]
MSTOP bioactivity was determined in a reporter gene cell model. […] After six hours, IL-33 signaling was quantified by absorbance at 620 nm, based on the metabolism of QUANTI-Blue substrate by expressed SEAP secreted into the media.

How did the “reduction in IL-33 induced SEAP expression” value (1 μM, 100 pg/mL IL-33, 6 h) turn out when “MSTOP: 3WJ DNA scaffold whose three DBCO staple strands carry cyclized azidolysine IL-1RAcP hotspot peptides; decoy for IL-33/ST2 (peptide 1 Ac-CKEYGIQRITC-NH2; peptide 2 Ac-AKVGSPKNAVPPC-NH2; peptide 3 Ac-CKGEVAKAAKVKC-NH2; disulfide I:1-I:11, III:1-III:13; thioether II:1-II:13; not fully specified (some residues); also: three peptides held on a 3-way junction DNA scaffold via DBCO staple strands)” was run?
The value was about 40%.

And the “inhibition of IL-33 cells compared to IL-1β cells” value (MSTOP dose curve 10 μM to 10 nM)?
The value was “Significant inhibition”.

— patent US20240084044A1, “Heteromultivalent Nucleic Acid Scaffolds and Uses Thereof” (George Mason University, priority 2022, published 2024)
